In ChEMBL document CHEMBL5725933, “Amino compounds for treatment of complement mediated disorders” (2017) one finds IC50 data, which are given here for 1 compound.

Each structure is given as a SMILES string. Bounds are passed on as bounds.

The assay deals with Complement factor D (Homo sapiens, UniProt P00746). The assay can be described thus: Factor D Assay: Human factor D (purified from human serum, Complement Technology, Inc.) at 80 nM final concentration is incubated with test compound at various concentrations for 5 minutes at room temperature in 50 mM Tris, 1M NaCl, pH 7.5. A synthetic substrate Z-L-Lys-SBz1 and DTNB (Ellman's reagent) are added to final concentrations of 100 μM each. The increase in color is recorded at OD405 nm in a microplate in kinetic mode over 30 minutes with 30 second time points in a spectrofluorimeter. IC50 values are calculated by non-linear regression from the percentage of inhibition of complement factor D activity as a function of test compound concentration.
Chain of Complement factor D (P00746 whole entry): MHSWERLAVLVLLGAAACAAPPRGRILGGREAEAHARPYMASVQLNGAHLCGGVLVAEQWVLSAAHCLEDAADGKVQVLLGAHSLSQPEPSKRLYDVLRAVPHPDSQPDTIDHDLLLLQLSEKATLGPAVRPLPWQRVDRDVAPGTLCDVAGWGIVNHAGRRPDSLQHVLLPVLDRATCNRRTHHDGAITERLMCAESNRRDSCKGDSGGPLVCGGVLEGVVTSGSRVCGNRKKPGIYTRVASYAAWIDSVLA

Regarding `CC(=O)c1cn(CC(=O)N2C[C@H](F)C[C@H]2C(=O)Nc2cccc(Br)n2)c2ccc(Nc3cncc(F)c3)cc12`, the IC50 (commonly the midpoint of a concentration-inhibition curve) was less than 1 µM.
